The source of these data is patent US20020001652A1, “Process for making granulated N-[N- (3, 3-dimethylbutyl) -L-alpha -aspartyl] -L- phenylalanine 1-methyl ester” (priority 2000, published 2002).

Data set [1] is described as follows: HPLC analysis of neotame degradation during granulation. It is filed as physicochemical. The conditions noted are these: roller compaction, cone mill, sieving. The text has this:
A lab scale TF-Mini roller compactor (Vector Corp., Marion, Iowa) was used in conjunction with a cone mill and a Ro-Tap testing sieve shaker (model B, CE Tyler Combustion Engineering, Inc., Mentor, Ohio) for testing and producing granulated neotame. The neotame powder flowed well into the feed hopper. […] The energy consumption of the rolls and feed screw were within the desired limits. The flakes were broken down into granular particles using a cone mill. The granulation was sieved to obtain a particle size that passed through 20 mesh and was retained on 60 mesh.

Data set [2] in a line: bulk density (loose), cup of known volume. It is filed as physicochemical. The conditions noted are these: Example 2; granulation through 20 mesh, retained on 60 mesh, versus initial powder. As for the experimental part:
In particular, bulk density (loose) was measured using a cup of known volume. The cup was filled with sample, excess was removed and the sample was weighed.

Consider `COC(=O)[C@H](Cc1ccccc1)NC(=O)[C@H](CC(=O)O)NCCC(C)(C)C` [neotame, N-[N-(3,3-dimethylbutyl)-L-α-aspartyl]-L-phenylalanine 1-methyl ester], for which, in data set [1], the “degradation of neotame during granulation process” value was “no degradation”. The molecule also yielded a bulk density in data set [2] of 0.4 g/cc.
